Test system: human tenocytes
Experiment: Human tenocyte adhesion and proliferation, in vitro culture, manual count in ten microscopic fields
Format: cell-based
Settings: IGF-1 10 ng/mL, same increase reached after 9 hours, FIG. 2
Protocol: The objective was to determine the effect of compound Ic on human tenocyte proliferation and adhesion in an in vitro culture model, since a drug stimulating tenocyte proliferation and adhesion could be especially useful in the treatment or repair of tendons.
For comparison purposes, the effect of the growth factor IGF-1 on human tenocyte proliferation and adhesion in the same type of in vitro culture model was determined.
The increase of adhered tenocytes was quantified by means of manual count in ten microscopic fields.
Human tendon explants (of approximately 3-5 mm) were cultured in a culture flask with culture medium formed by 10% FCS, DMEM/Ham-12 (50/50) (Dulbecco's Modified Eagle's Medium with Ham-12), 50 IU/mL of penicillin/streptomycin, […] of ascorbic acid, 2.5 μg/mL of amphotericin B, 1% glutamine and 1% essential amino acids. […]
Twelve-well plates were prepared with 15,000 tenocytes/well and they were incubated with 10% FCS (fetal calf serum). On the following day, the cells were washed three times with serum-free culture medium (0.5% FCS) and were incubated for 30 minutes with serum-free culture medium, after which the control cultures were counted (time “0 hours”). […]
In all the assays, the cells were incubated for 71 hours and each well was evaluated in each time period by means of a manual count in 10 microscopic fields. […]

For “IGF-1: growth factor IGF-1 (Insulin-like Growth Factor 1), used for comparison at 10 ng/mL”, the “increase in the number of adhered tenocytes with respect to the control” value was roughly 45%.
